# US6641840B2, “Sustained release formulations for growth hormone secretagogues” (Pfizer Inc., priority 2000, dated 2003)
# Read-outs that look alike come from different tables or passages of the source.
# Columns and labels:
# rat pituitary cells = test: Pituitary cell desensitization - intracellular calcium assay; type: cell-based
# From the text: Thus, it appears that sustained release formulations would not provide the desired in vivo response. The experiment was designed so that changes in intracellular calcium concentration could be continuously monitored during successive exposures of the same cells to the indicated test substances.
# Rat pituitary cells were isolated as described in Example 3 and plated onto poly-D-lysine-coated glass coverslips, one coverslip per well in 12-well plates, at a density of 3-4×10^5 cells per well. Assays were performed 3-4 days after plating. Cells were loaded with 5 μM fura-2 AM (Molecular Probes, Eugene, Oreg.), a calcium-sensitive fluorescent dye, by incubation for 30 min at room temperature. Fura-2 was dissolved in dimethylsulfoxide at 5 mM, then diluted into KRH buffer (115 mM NaCl, 5.4 mM KCl, 1.8 mM CaCl2, 1 mM MgCl2, 0.96 mM NaH2PO4, 25 mM HEPES, 6 mM glucose and 0.05% bovine serum albumin, adjusted to pH 7.3)
# To assay changes in intracellular calcium concentration, a coverslip with attached cells was mounted in a perfusion chamber on the stage of an inverted microscope (Zeiss Axiovert 135 with epifluorescence, Geschaftsbereich Mikroscopie, Oberkochen, Germany) and continuously superfused at room temperature. After superfusion with KRH for 1-2 min, baseline fluorescence was recorded. Each test substance was applied for 2 min, followed by washout with KRH prior to stimulation with the next test substance. Up to 20 individual cells per field were selected for recording and were excited alternately at wavelengths of 380 nm or 340 nm (slit width 15 nm). Fluorescence emission at 510 nm was collected at 5 sec intervals by a low light CCD camera (Hamamatsu Photonics, Hamamatsu City, Japan), and digitized images for the two excitation wavelengths were analyzed using Videoprobe software (ETM Systems, Irvine, Calif.) to determine the 340 nm/380 nm fluorescence ratio for individual cells during each time interval. The 340 nm/380 nm fluorescence ratio is proportional to the concentration of intracellular calcium.
# [1] = Excipient selection based on active compound solubility screening; type: physicochemical; details: for solubility at 5 min: filtrate of excipient solution in water, 37 °C, thermodynamic from solid
# Experimental: Such excipients are useful in making osmotic sustained release tablets. […] The active compound solubility measured in this manner exceeded 150 mgA/ml (mgA is the milligrams of active compound).
# The excipients were screened by preparing a saturated solution (unless otherwise noted) of the candidate excipient in water at 37° C. for 2 hrs, and filtering the undissolved portion. […] The solution was maintained at 37° C. for 5 minutes prior to making the visual observation for any undissolved particulates.
compound,measurement,setting,value
CN1N=C2CCN(C(=O)[C@@H](COCc3ccccc3)NC(=O)C(C)(C)N)C[C@@]2(Cc2ccccc2)C1=O.O=C(O)C(O)C(O)C(=O)O [Compound A],calcium flux on re-exposure to Compound A after washout,rat pituitary cells; cells that initially responded to Compound A or GHRP-6,refractory
same,desensitization between GHRH and Compound A,"rat pituitary cells; intracellular calcium, successive exposures",no desensitization
same,cellular responses (intracellular calcium) on repeated exposure,rat pituitary cells; successive 2 min exposures with washout,homologous desensitization
same,visual observation on addition of Compound A,"[1]; L-lysine solution 50 mg/ml, 37° C.",cloudy gel
same,solubility at 5 min,"[1]; aqueous buffer, L-lysine solution 50 mg/ml (below saturation), 37° C., read-out: COMPOUND A Solubility",< 50 mg/mL
same,solubility at 5 min,"[1]; aqueous buffer, saturated L-arginine solution, approx. 150 mg/ml, 37° C., read-out: COMPOUND A Solubility",< 50 mg/mL
same,solubility at 5 min,"[1]; aqueous buffer, saturated L-aspartic acid solution, approx. 7 mg/ml, 37° C., read-out: COMPOUND A Solubility",> 150 mg/mL
same,solubility at 5 min,"[1]; aqueous buffer, saturated ascorbic acid solution, approx. 400 mg/ml, 37° C., read-out: COMPOUND A Solubility",> 150 mg/mL
same,solubility at 5 min,"[1]; aqueous buffer, saturated citric acid solution, approx. 600 mg/ml, 37° C., read-out: COMPOUND A Solubility",> 150 mg/mL
same,solubility at 5 min,"[1]; aqueous buffer, saturated fumaric acid solution, approx. 10 mg/ml, 37° C., read-out: COMPOUND A Solubility",> 150 mg/mL
same,solubility at 5 min,"[1]; aqueous buffer, saturated potassium phosphate monobasic solution, approx. 400 mg/ml, 37° C., read-out: COMPOUND A Solubility",< 50 mg/mL
same,solubility at 5 min,"[1]; aqueous buffer, saturated sodium bitartrate solution, approx. 110 mg/ml, 37° C., read-out: COMPOUND A Solubility",> 150 mg/mL
same,solubility at 5 min,"[1]; aqueous buffer, saturated sodium citrate solution, approx. 520 mg/ml, 37° C., read-out: COMPOUND A Solubility",< 50 mg/mL
same,solubility at 5 min,"[1]; aqueous buffer, saturated sodium phosphate monobasic solution, approx. 1000 mg/ml, 37° C., read-out: COMPOUND A Solubility",< 50 mg/mL
same,solubility at 5 min,"[1]; aqueous buffer, saturated sodium phosphate tribasic solution, approx. 290 mg/ml, 37° C., read-out: COMPOUND A Solubility",< 50 mg/mL
same,solubility at 5 min,"[1]; aqueous buffer, saturated succinic acid solution, approx. 80 mg/ml, 37° C., read-out: COMPOUND A Solubility",> 150 mg/mL
same,solubility at 5 min,"[1]; aqueous buffer, sodium bitartrate buffer, read-out: solubility of the active compound",> 150 mg/mL
same,solubility at 5 min,"[1]; aqueous buffer, tartaric acid solution 50 mg/ml (below saturation), 37° C., read-out: COMPOUND A Solubility",> 150 mg/mL
same,solubility at 5 min,"[1]; aqueous with cosolvent or surfactant or cyclodextrin, cyclodextrin, sulfobutylether solution, approx. 1000 mg/ml, 37° C., read-out: COMPOUND A Solubility",100 to 150 mg/mL
same,solubility at 5 min,"[1]; aqueous with cosolvent or surfactant or cyclodextrin, polyethylene glycol (Carbowax 3350) 50 mg/ml, 37° C., read-out: COMPOUND A Solubility",> 150 mg/mL
same,solubility at 5 min,"[1]; aqueous with cosolvent or surfactant or cyclodextrin, sodium lauryl sulfate solution, approx. 50 mg/ml, 37° C., read-out: COMPOUND A Solubility",50 to 100 mg/mL
same,solubility at 5 min,"[1]; aqueous with cosolvent or surfactant or cyclodextrin, sulfobutylether cyclodextrin, read-out: active compound substance solubility",100 to 150 mg/mL
same,solubility at 5 min,"[1]; saline or isotonic, saturated potassium chloride solution, approx. 360 mg/ml, 37° C., read-out: COMPOUND A Solubility",< 50 mg/mL
same,solubility at 5 min,"[1]; saline or isotonic, saturated sodium chloride solution, approx. 360 mg/ml, 37° C., read-out: COMPOUND A Solubility",< 50 mg/mL
same,solubility at 5 min,"[1]; visual screening, 37° C., read-out: active compound solubility measured in this manner",> 150 mg/mL
same,solubility at 5 min,"[1]; water, calcium stearate < 1 mg/ml, prepared at 2 mg/mL, 37° C., read-out: COMPOUND A Solubility",> 150 mg/mL
same,solubility at 5 min,"[1]; water, magnesium stearate < 1 mg/ml, 37° C., read-out: COMPOUND A Solubility",> 150 mg/mL
same,solubility at 5 min,"[1]; water, microcrystalline cellulose (Avicel PH102) < 1 mg/ml, prepared at 80 mg/ml, 37° C., read-out: COMPOUND A Solubility",> 150 mg/mL
same,solubility at 5 min,"[1]; water, microcrystalline cellulose, silicified (Prosolv SMCC50) < 1 mg/ml, prepared at 80 mg/ml, 37° C., read-out: COMPOUND A Solubility",> 150 mg/mL
same,visual observation on addition of Compound A,"[1]; saturated potassium chloride solution, 37° C.",cloudy gel
same,visual observation on addition of Compound A,"[1]; saturated sodium chloride solution, 37° C.",cloudy gel
same,visual observation on addition of Compound A,"[1]; saturated sodium citrate solution, 37° C.",cloudy gel
same,visual observation on addition of Compound A,"[1]; saturated sodium phosphate monobasic solution, 37° C.",cloudy gel
same,visual observation on addition of Compound A,"[1]; saturated sodium phosphate tribasic solution, 37° C.",cloudy gel
same,visual observation on addition of Compound A,"[1]; sodium lauryl sulfate solution 50 mg/ml, 37° C.",clear gel
